Measurements reported in US20180235213A1, “PLANT HORMONE APPLICATION” (The State of Israel Ministry of Agriculture & Rural …, priority 2015, published 2018).

Legend:
[1] = system: Picual olives; assay: Application of strigolactone analogs by irrigation to olive seedlings; format: in vivo, Olea europaea L.; conditions: irrigation to roots twice a week for 6 weeks, 0.03 and 0.3 μM, vs control
Protocol: The effect of application of various analogues of strigolactone (SL) on olives, given to roots by irrigation was examined. Three different SL analogs; […] The seedlings were rooted from cuttings and hardened, and were about 6 months old at the time of the experiment. Growth soil mixture was used as in the nursery. Each strigolactone analog was dissolved in acetone to give a 5.6 mM solution. This solution was then further diluted with distilled water to 0.03 and 0.3 μM. The diluted solution was injected to the roots twice a week for 6 weeks, and subsequently all the growing buds were counted. For each treatment (treated and control groups) 10 plants were measured. Experiments were repeated three times.

[2] = system: Orobanche aegyptiaca seeds; assay: Orobanche Germination Assay (biological activity after stress treatments); format: in vivo; conditions: with vs without HPC
Protocol: The implementation of the strigolactone analogs necessitates a degree of material stability, to ensure their activity on the plant under various growth conditions. Accordingly, the stability of the strigolactone analog GR24 was tested under different environmental conditions. GR24 in acetone stock solution of 5.6 mM was diluted in double distilled water (DDW) or HPC pre-made gel to a concentration of 0.56 μM in eppendorf tubes and was subjected to the following treatments:
GR24 solutions of 0.56 μM, diluted either in DDW or in HPC pre-made gel in eppendorf tubes were incubated in a dry block heater at temperatures of 4° C., 20° C., 40° C., 60° C. digitally set for periods of 3 h, 1 d, 2 d, 4 d, 5 d and 7 d under ambient light.
GR24 solutions of 0.56 μM, diluted either in DDW or in HPC pre-made gel, each in quartz tubes (15 replicates for each treatment) were exposed to UV radiation of λ=312 nm under UV lamp of 600 or 857 μE intensity for periods of 15 min, 30 min or 18 h.
Biological activity was determined by Orobanche Germination Assay: Approximately 30 to 50 seeds of Orobanche aegyptiaca were spread on a glass fiber filter paper disk (9-mm diameter) and put into sterile petri dishes (9-cm diameter) lined with Whatman filter paper wetted with 3 mL of demineralized water. Petri dishes were sealed with parafilm and incubated at 27° C. for preconditioning. After one week of preconditioning period, the glass fiber filter paper disks with Orobanche seeds were removed from the petri dish and dried for 20 min to remove surplus moisture. The disks were transferred to another petri dish within a filter paper ring (outer diameter of 9 cm; inner diameter of 8 cm) wetted with 0.9 mL of water, which maintained a moist environment during the germination bioassay. Forty microliters of the GR24 test solutions were added to the disks. Untreated GR24 at a 0.56 μM concentration was used as a positive control, water or HPC pre-made gel as negative controls. Germination percent was calculated using the counter cell analysis of the IMAGEJ (http://www.//rsbweb.nih.gov/ij/) software. Germinated seeds were distinguished from non-germinated seeds according to the seedling radicles, which are a few millimeters long and visible under a stereomicroscope (Leica MZFLIII, Leica Microsystems, GmbH).
For each of the GR24 treatments fifteen replicates with 30-40 seeds were tested per treatment with 40 μl of 0.56 μM GR24 test solutions pre-treated as described above. The experiment was repeated three times (n=450 seeds).
Next, GR24 was stabilized with Hydroxypropyl Cellulose (HPC), which is a […] medium. Granular HPC [Sigma-Aldrich Israel Ltd., CAS-No. 9004-64-2] […]

[3] = system: olive seedling; assay: Application to olive seedling stem under greenhouse conditions (parafilm, flexible or rigid tubes); conditions: rigid tubes
Protocol: EGO10 either with PVAc, or HPC+glycerin were applied on olive seedling stem by the use of parafilm cover as the apparatus, under greenhouse conditions (FIG. 15). Greenhouse conditions include controlled room temperature of 25° C. In each experiment, 10 plants were used for each treatment. The substances were applied on the stem by a spatula and covered with parafilm.
In attempt to improve the performance of the apparatus, different substances and different cover were used. Four formulations were developed and tested. These formulations are based on polysaccharide-sorbent-humidifier substances while the main difference between them is the viscosity of the final product and the ability to retain and release of the active ingredient (EGO 10). […] The cover consisted of a flexible plastic tube that was cut (FIG. 16A), placed on the seedling stem (FIG. 16B) and wrapped with transparent plaster (FIG. 16C). The plastic tubes were filled with the experimental material (FIG. 16D). Moist cotton was placed on both sides of the tubes to minimize water evaporation (FIG. 16E and FIG. 16F). Bud outgrowth was measured for 30 days.
Rigid plastic tubes were tested in order to determine their efficiency as a delivery device for application of the hormone formulations to plants. At first, eppendorf tubes served as prototype. The tubes ware cut from top to bottom and placed on the stem of seedlings. Each tube was sealed with a small moist cotton at the bottom, filled with 1 ml of the examined material and finally covered with transparent plastic tape (FIGS. 17A-17E). The tubes were filled with (HPC+glycerin), or PVAc and EGO10 In each experiment, 10 plants were used for each treatment. Greenhouse conditions include controlled room temperature of 25° C.
EGO10 (10 μM) or acetone control together with HPC+glycerin or PVAc were applied on the stem of olive cuttings by the use of rigid plastic tubes as described in Example 10 above.
Bud outgrowth of olive cuttings was measured until day 30.

[4] = system: Tomato (Shirez, Ikram cultivars); assay: EGO10 collar, irrigation and granules application to greenhouse tomato; format: in vivo, Solanum lycopersicum; conditions: for side branches: collar of 500 μM; for side branch weight: collars 25 and 50 μM
Source text: Greenhouse tomato (Shirez, Ikram and other cultivars) are one of the crops that necessitate vast investment in the constant trimming of side branches. Hand labor is needed for this trimming, on an everyday basis, to avoid significant yield loses. The constant trimming is a cause for infection at trimming sites. […] For these experiments two cultivars of greenhouse tomato were used, Ikram and Shirez, both vigorously producing side branches that should be trimmed under commercial growth conditions.
Also, treatments that include irrigation with 3×10^−6 M (once a week for 6 weeks, 5 ml) and granules application (controlled release at that same concentration of 3×10^−6 M) were applied. Each treatment consisted of 20 plants, blocks of 4 plants were randomly distributed in the greenhouse.
Following, and to increase the possible effect of EGO10 on tomato branching, additional experiment was performed with tomato plants were treated with collar of 500 μM EGO10.

CC1=C[C@H](O/C=C2\Cc3c(n(C)c4ccccc34)C2=O)OC1=O [EGO10]
number of growing buds / lateral branches [1]: repressing effect on axillary branch growth similar to that of GR24
Orobanche germination % with HPC at 60° C. ([2]; 60° C., 0 and 24 hours): increased biological activity
Orobanche germination % with HPC at different pH ([2]; basic and acidic pH (pH 4, pH 7, pH 10)): increased biological activity
plant growth ([3]; 10 μM with HPC+glycerin, greenhouse): without delaying plant growth
bud outgrowth ([3]; 10 μM with HPC+glycerin, greenhouse, 30 days, not significantly different from control): some inhibition of bud outgrowth
growth of treated olive buds ([3]; 50 μM with HPC+glycerin): grew properly
bud outgrowth ([3]; 50 μM with HPC+glycerin, until day 30, vs acetone+HPC+glycerin): significantly inhibits bud outgrowth
yield determined as number of fruit ([4]; Ikram, EGO10 treated plants): increased
side branches ([4]; Ikram): significant reduction in side branches
side branch weight ([4]; Ikram): reduced to some extent branching
side branches ([4]; Shirez): did not respond
side branch weight ([4]; Shirez, irrigation, granules): did not change significantly branching
